Values quoted from earlier work in patent publication US12582584B2, “Oxidizer and acid based system and regimen for enhancing skin appearance” (L'OREAL, priority 2021, dated 2026).

Conditions: acute oral toxicity, mutagenicity, skin irritation, skin sensitization, phototoxicity

CC(c1ccccc1)c1ccc(O)cc1O (stereo not shown) [Phenylethyl resorcinol]
Adverse effects in basic toxicological tests: has not shown adverse effects
